Laboratory results published in PubChem BioAssay AID328 (DTP/NCI, 2004).
Where “and” joins values, the source holds several entries; their conditions need not be identical. Equal values may be shown once. Inconclusive results and toxic doses are left out.

System: BDF1 mice, P388 leukemia ip, median survival T/C
Experiment: NCI In Vivo Anticancer Drug Screen. Data for tumor model P388 Leukemia (intraperitoneal) in B6D2F1 (BDF1) mice
Conditions: endpoint: median survival time, higher = longer survival
Method in brief: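 Vehicle-dosed animals serve as the reference; survival of compound-dosed, tumour-implanted mice is divided by it.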

[1] = dose: 50.0 mg/kg/injection, schedule: Q01DX009 (ip), vehicle: saline with Tween-80
[2] = dose: 50.0 mg/kg/injection, schedule: Q04DX003 (ip), vehicle: saline with Tween-80
[3] = dose: 100.0 mg/kg/injection, schedule: Q01DX009 (ip), vehicle: Klucel (hydroxypropylcellulose) (HPC)
[4] = dose: 100.0 mg/kg/injection, schedule: Q04DX003 (ip), vehicle: Klucel (hydroxypropylcellulose) (HPC)
[5] = dose: 200.0 mg/kg/injection, schedule: Q01DX009 (ip), vehicle: Klucel (hydroxypropylcellulose) (HPC)
[6] = dose: 200.0 mg/kg/injection, schedule: Q04DX003 (ip), vehicle: Klucel (hydroxypropylcellulose) (HPC)
[7] = dose: 400.0 mg/kg/injection, schedule: Q01DX009 (ip), vehicle: Klucel (hydroxypropylcellulose) (HPC)
[8] = dose: 400.0 mg/kg/injection, schedule: Q04DX003 (ip), vehicle: Klucel (hydroxypropylcellulose) (HPC)
[9] = dose: 100.0 mg/kg/injection, schedule: Q01DX009 (ip), vehicle: saline with Tween-80
[10] = dose: 200.0 mg/kg/injection, schedule: Q01DX009 (ip), vehicle: saline with Tween-80
[11] = dose: 25.0 mg/kg/injection, schedule: Q04DX003 (ip), vehicle: saline
[12] = dose: 50.0 mg/kg/injection, schedule: Q04DX003 (ip), vehicle: saline
[13] = dose: 100.0 mg/kg/injection, schedule: Q04DX003 (ip), vehicle: saline

`NNc1ccnc2[nH]ncc12` was tested, and the T/C (dose: 6.25 mg/kg/injection, schedule: Q01DX006 (ip), vehicle: saline with Tween-80) was 107 % of control, the T/C (dose: 12.5 mg/kg/injection, schedule: Q01DX006 (ip), vehicle: saline with Tween-80) was 104 % of control and the T/C (dose: 25.0 mg/kg/injection, schedule: Q01DX006 (ip), vehicle: saline with Tween-80) was 104 % of control.
In the case of `COc1cc(C=Nc2cccc(Cl)c2)ccc1N(CCCl)CCCl`, the T/C (dose: 8.0 mg/kg/injection, schedule: Q04DX003 (ip), vehicle: saline with Tween-80) is reported as 195 % of control, the T/C (dose: 12.5 mg/kg/injection, schedule: Q01DX009 (ip), vehicle: saline with Tween-80) is reported as 187 % of control and the T/C (dose: 16.0 mg/kg/injection, schedule: Q04DX003 (ip), vehicle: saline with Tween-80) is reported as 187 % of control. The T/C (dose: 25.0 mg/kg/injection, schedule: Q01DX009 (ip), vehicle: saline with Tween-80) was 187 % of control, the T/C (dose: 33.0 mg/kg/injection, schedule: Q04DX003 (ip), vehicle: saline with Tween-80) was 207 % of control and the T/C [1] was 95 % of control. For the same compound, the T/C [2] was 230 % of control.
For `CCOC(=O)C(C#N)C1CCCCC1` (stereo unspecified), the T/C [3] was 100 % of control, the T/C [4] was 104 % of control and the T/C [5] was 104 % of control. The T/C [6] was 104 % of control, the T/C [7] was 109 % of control and the T/C [8] was 90 % of control.
`CCOP(=O)(OCC)ON1C(=O)c2cccc3cccc(c23)C1=O` was tested, and the T/C (dose: 0.78 mg/kg/injection, schedule: Q01DX009 (ip), vehicle: Klucel (hydroxypropylcellulose) (HPC)) was 97 % of control and the T/C (dose: 1.56 mg/kg/injection, schedule: Q01DX009 (ip), vehicle: Klucel (hydroxypropylcellulose) (HPC)) was 99 % of control.
`CCCCSCC(N)C(=O)O` (stereo unspecified) was tested, and the T/C [3] was 116 % of control, the T/C [4] was 104 % of control and the T/C [5] was 121 % of control. The T/C [6] was 104 % of control, the T/C [7] was 111 % of control and the T/C [8] was 95 % of control.
In the case of `IP(c1ccccc1)(c1ccccc1)(c1ccccc1)N1C2CCCCC21` (stereo unspecified), the T/C (dose: 0.07 mg/kg/injection, schedule: Q01DX009 (ip), vehicle: saline) is reported as 104 % of control and 113 % of control, the T/C (dose: 0.15 mg/kg/injection, schedule: Q01DX009 (ip), vehicle: saline) is reported as 150 % of control and 156 % of control and the T/C (dose: 0.23 mg/kg/injection, schedule: Q04DX003 (ip), vehicle: saline) is reported as 109 % of control. The T/C (dose: 0.31 mg/kg/injection, schedule: Q01DX009 (ip), vehicle: saline) was 150 % of control, the T/C (dose: 0.46 mg/kg/injection, schedule: Q04DX003 (ip), vehicle: saline) was 118 % of control and the T/C (dose: 0.6 mg/kg/injection, schedule: Q01DX009 (ip), vehicle: saline) was 166 % of control. For the same compound, the T/C (dose: 0.62 mg/kg/injection, schedule: Q04DX003 (ip), vehicle: saline) was 113 % of control, the T/C (dose: 0.93 mg/kg/injection, schedule: Q04DX003 (ip), vehicle: saline) was 118 % of control and the T/C (dose: 1.2 mg/kg/injection, schedule: Q01DX009 (ip), vehicle: saline) was 156 % of control.
For `O=C1c2c(Cl)c(Cl)c(Cl)c(Cl)c2C(=O)N1c1ccccc1-c1ccccc1`, the T/C (dose: 175.0 mg/kg/injection, schedule: Q01DX009 (ip), vehicle: saline with Tween-80) was 89 % of control and the T/C (dose: 350.0 mg/kg/injection, schedule: Q01DX009 (ip), vehicle: saline with Tween-80) was 94 % of control.
For `O=[N+]([O-])C(CO)(CO)CC(F)(F)F`, the T/C (dose: 3.13 mg/kg/injection, schedule: Q01DX009 (ip), vehicle: saline) was 100 % of control, the T/C (dose: 3.13 mg/kg/injection, schedule: Q04DX003 (ip), vehicle: saline) was 100 % of control and the T/C (dose: 6.25 mg/kg/injection, schedule: Q01DX009 (ip), vehicle: saline) was 104 % of control. The T/C (dose: 6.25 mg/kg/injection, schedule: Q04DX003 (ip), vehicle: saline) was 100 % of control and the T/C (dose: 12.5 mg/kg/injection, schedule: Q01DX009 (ip), vehicle: saline) was 90 % of control.
In the case of `Cc1nc2ncn(C)c2nc1C`, the T/C (dose: 25.0 mg/kg/injection, schedule: Q01DX001 (ip), vehicle: saline sonified) is reported as 105 % of control, the T/C (dose: 50.0 mg/kg/injection, schedule: Q01DX001 (ip), vehicle: saline sonified) is reported as 100 % of control and the T/C (dose: 100.0 mg/kg/injection, schedule: Q01DX001 (ip), vehicle: saline sonified) is reported as 105 % of control.
For `CCN(CC)CCNc1ccc(CO)c2sc3ccc(O)cc3c(=O)c12`, the T/C (dose: 9.88 mg/kg/injection, schedule: Q04DX002 (ip), vehicle: saline with Tween-80) was 163 % of control, the T/C (dose: 18.75 mg/kg/injection, schedule: Q04DX002 (ip), vehicle: saline with Tween-80) was 207 % of control and the T/C (dose: 37.5 mg/kg/injection, schedule: Q04DX002 (ip), vehicle: saline with Tween-80) was 179 % of control. For the same compound, the T/C (dose: 75.0 mg/kg/injection, schedule: Q04DX002 (ip), vehicle: saline with Tween-80) was 207 % of control.
For `Cc1ccc(C)c(C(=O)C2CC2)c1`, the T/C [2] was 100 % of control, the T/C [9] was 100 % of control and the T/C (dose: 100.0 mg/kg/injection, schedule: Q04DX003 (ip), vehicle: saline with Tween-80) was 120 % of control. The T/C (dose: 150.0 mg/kg/injection, schedule: Q01DX009 (ip), vehicle: saline with Tween-80) was 103 % of control, the T/C [10] was 110 % of control and the T/C (dose: 200.0 mg/kg/injection, schedule: Q04DX003 (ip), vehicle: saline with Tween-80) was 100 % of control.
For `O=C(NC(=S)N1CC=CCC1)c1ccccc1`, the T/C [1] was 87 % of control, the T/C [9] was 111 % of control and the T/C [10] was 108 % of control. The T/C (dose: 400.0 mg/kg/injection, schedule: Q01DX009 (ip), vehicle: saline with Tween-80) was 101 % of control.
In the case of `CC(=O)Nc1ccc(/C=N/Nc2ccc([N+](=O)[O-])cn2)cc1`, the T/C (dose: 62.5 mg/kg/injection, schedule: Q01DX010 (ip), vehicle: saline) is reported as 95 % of control, the T/C (dose: 100.0 mg/kg/injection, schedule: Q04DX003 (ip), vehicle: saline sonified) is reported as 105 % of control and the T/C (dose: 125.0 mg/kg/injection, schedule: Q01DX010 (ip), vehicle: saline) is reported as 90 % of control. For the same compound, the T/C (dose: 200.0 mg/kg/injection, schedule: Q04DX003 (ip), vehicle: saline sonified) was 105 % of control, the T/C (dose: 250.0 mg/kg/injection, schedule: Q01DX010 (ip), vehicle: saline) was 100 % of control and the T/C (dose: 400.0 mg/kg/injection, schedule: Q04DX003 (ip), vehicle: saline sonified) was 100 % of control.
`O=c1[nH]c2cc(Cl)ccc2c(CCl)c1Cl` was tested, and the T/C [11] was 109 % of control, the T/C [12] was 104 % of control and the T/C (dose: 56.25 mg/kg/injection, schedule: Q01DX001 (ip), vehicle: saline with Tween-80) was 109 % of control. For the same compound, the T/C [13] was 100 % of control, the T/C (dose: 112.5 mg/kg/injection, schedule: Q01DX001 (ip), vehicle: saline with Tween-80) was 113 % of control and the T/C (dose: 225.0 mg/kg/injection, schedule: Q01DX001 (ip), vehicle: saline with Tween-80) was 109 % of control.
For `C=C1C(=O)OCC2C(C(=O)O)=CC3C(C)C(C)=CC123` (stereo unspecified), the T/C (dose: 2.5 mg/kg/injection, schedule: Q01DX009 (ip), vehicle: other) was 105 % of control, the T/C (dose: 5.0 mg/kg/injection, schedule: Q04DX003 (ip), vehicle: other) was 117 % of control and the T/C (dose: 10.0 mg/kg/injection, schedule: Q01DX009 (ip), vehicle: Klucel (hydroxypropylcellulose) (HPC)) was 105 % of control and 121 % of control. For the same compound, the T/C (dose: 10.0 mg/kg/injection, schedule: Q04DX003 (ip), vehicle: other) was 111 % of control, the T/C (dose: 20.0 mg/kg/injection, schedule: Q01DX009 (ip), vehicle: Klucel (hydroxypropylcellulose) (HPC)) was 117 % of control and 120 % of control and the T/C (dose: 20.0 mg/kg/injection, schedule: Q04DX003 (ip), vehicle: other) was 124 % of control. For the same compound, the T/C (dose: 40.0 mg/kg/injection, schedule: Q01DX009 (ip), vehicle: Klucel (hydroxypropylcellulose) (HPC)) was 121 % of control and the T/C (dose: 40.0 mg/kg/injection, schedule: Q04DX003 (ip), vehicle: other) was 119 % of control.
With `CC1(C)CCCC2(C)C3CCC(C31)C2OC(=O)c1ccc([N+](=O)[O-])cc1` (stereo unspecified) the T/C (dose: 50.0 mg/kg/injection, schedule: Q01DX001 (ip), vehicle: saline with Tween-80) was 100 % of control, the T/C (dose: 100.0 mg/kg/injection, schedule: Q01DX001 (ip), vehicle: saline with Tween-80) was 100 % of control and the T/C (dose: 200.0 mg/kg/injection, schedule: Q01DX001 (ip), vehicle: saline with Tween-80) was 105 % of control.
`COC(=O)/C=C1/C(=O)N(C)c2ccccc21` was tested, and the T/C [1] was 122 % of control, the T/C [9] was 98 % of control and the T/C [10] was 104 % of control.
`N#Cc1cnn(C(N)=S)c1N` was tested, and the T/C [11] was 104 % of control, the T/C [12] was 104 % of control and the T/C [13] was 100 % of control.
